Assay results: patent US8809270B2, “Method for reducing cardiovascular morbidity and mortality in prediaetic patients and patients with type 2 diabetes” (priority 2003, dated 2014)

Tests used:
[1] = system: patients with various levels of fasting hypertriglyceridemia; assay: Two multicenter placebo-controlled AMARYL registration studies: lipid data; assay type: in vivo, human; set-up: Triglycerides % reduction from baseline / Non-HDL Cholesterol Total % reduction from baseline: concentration or dose not given beside the values; Triglycerides Baseline / Triglycerides Endpoint: unit not given beside the values
From the text: There is evidence from the literature that use of sulfonylurea (SU) as initial drug treatment of the type 2 patient with DDL exerts a weaker effect on reduction of hypertriglyceridemia, or on increasing HDL-C, than is seen with insulin, and/or that the effects are less durable. In order to compare the effects of Lantus LANTUS (insulin glargine) on fasting TG and non-HDL-C levels with oral agents from the sulfonylurea class, the glimepiride (Amaryl® AMARYL) database at Aventis was examined.

[2] = system: abnormalities of DDL; conditions: in vivo; cited from earlier work
[3] = system: type 2 diabetic patients already treated with other oral antidiabetic drugs; assay: Study 4014: lipid data, LANTUS versus rosiglitazone; assay type: in vivo, human; set-up: Triglycerides % reduction from baseline / Triglycerides % reduction from baseline, LANTUS-AVANDIA / Non-HDL Cholesterol Total % reduction from baseline: concentration or dose not given beside the values; Triglycerides Baseline / Triglycerides Endpoint: unit not given beside the values
[4] = system: IGT; conditions: statistically significant; cited from earlier work
[5] = after injection; cited from earlier work
[6] = system: diabetic patients hospitalized with acute MI; conditions: IV insulin-glucose infusion in-hospital followed by intensive chronic outpatient insulin, versus standard treatment; cited from earlier work

Compound: CCC1=C(C)CN(C(=O)NCCc2ccc(S(=O)(=O)NC(=O)N[C@H]3CC[C@H](C)CC3)cc2)C1=O [AMARYL, glimepiride]
- HDL Baseline ([1]; TG baseline range 200-500): 38
- HDL Endpoint ([1]; TG baseline range 200-500): 39
- Non-HDL Cholesterol Total % reduction from baseline ([1]; TG baseline range 200-500): 3%
- Non-HDL Cholesterol Total Baseline ([1]; TG baseline range 200-500): 197
- Non-HDL Cholesterol Total Endpoint ([1]; TG baseline range 200-500): 191
- Triglycerides % reduction from baseline ([1]; TG baseline range 200-500): 12%
- Triglycerides Baseline ([1]; TG baseline range 200-500): 299
- Triglycerides Endpoint ([1]; TG baseline range 200-500): 265
- HDL Baseline ([1]; TG baseline range 300-500): 36
- HDL Endpoint ([1]; TG baseline range 300-500): 37
- Non-HDL Cholesterol Total % reduction from baseline ([1]; TG baseline range 300-500): 3%
- Non-HDL Cholesterol Total Baseline ([1]; TG baseline range 300-500): 203
- Non-HDL Cholesterol Total Endpoint ([1]; TG baseline range 300-500): 198
- Triglycerides % reduction from baseline ([1]; TG baseline range 300-500): 18%
- Triglycerides Baseline ([1]; TG baseline range 300-500): 390
- Triglycerides Endpoint ([1]; TG baseline range 300-500): 321
- HDL Baseline ([1]; TG baseline range 300-1000): 36
- HDL Endpoint ([1]; TG baseline range 300-1000): 37
- Non-HDL Cholesterol Total % reduction from baseline ([1]; TG baseline range 300-1000): 5%
- Non-HDL Cholesterol Total Baseline ([1]; TG baseline range 300-1000): 209
- Non-HDL Cholesterol Total Endpoint ([1]; TG baseline range 300-1000): 198
- Triglycerides % reduction from baseline ([1]; TG baseline range 300-1000): 23%
- Triglycerides Baseline ([1]; TG baseline range 300-1000): 459
- Triglycerides Endpoint ([1]; TG baseline range 300-1000): 350
- HDL Baseline ([1]; TG baseline range 500-1000): 37
- HDL Endpoint ([1]; TG baseline range 500-1000): 39
- Non-HDL Cholesterol Total % reduction from baseline ([1]; TG baseline range 500-1000): 10%
- Non-HDL Cholesterol Total Baseline ([1]; TG baseline range 500-1000): 224
- Non-HDL Cholesterol Total Endpoint ([1]; TG baseline range 500-1000): 200
- Triglycerides % reduction from baseline ([1]; TG baseline range 500-1000): 33%
- Triglycerides Baseline ([1]; TG baseline range 500-1000): 662
- Triglycerides Endpoint ([1]; TG baseline range 500-1000): 445
- LDL Baseline ([1]; TG baseline range All): 142
- LDL Endpoint ([1]; TG baseline range All): 140

Compound: CN(CCOc1ccc(CC2SC(=O)NC2=O)cc1)c1ccccn1 (stereo not shown) [AVANDIA, rosiglitazone]
- effects on the abnormalities of DDL [2]: almost no effect
- HDL Baseline ([3]; TG baseline range 200-500): 38
- HDL Endpoint ([3]; TG baseline range 200-500): 40
- LDL Baseline ([3]; TG baseline range 200-500): 99
- LDL Endpoint ([3]; TG baseline range 200-500): 129
- Non-HDL Cholesterol Total Endpoint ([3]; TG baseline range 200-500): 59
- Triglycerides % reduction from baseline ([3]; TG baseline range 200-500): 0.1%
- Triglycerides Baseline ([3]; TG baseline range 200-500): 294
- Triglycerides Endpoint ([3]; TG baseline range 200-500): 291
- HDL Baseline ([3]; TG baseline range 300-500): 38
- HDL Endpoint ([3]; TG baseline range 300-500): 41
- Non-HDL Cholesterol Total % reduction from baseline ([3]; TG baseline range 300-500): −17%
- Non-HDL Cholesterol Total Baseline ([3]; TG baseline range 300-500): 177
- Non-HDL Cholesterol Total Endpoint ([3]; TG baseline range 300-500): 207
- Triglycerides % reduction from baseline ([3]; TG baseline range 300-500): 9%
- Triglycerides Baseline ([3]; TG baseline range 300-500): 376
- Triglycerides Endpoint ([3]; TG baseline range 300-500): 341
- HDL Baseline ([3]; TG baseline range 500-1000): 39
- HDL Endpoint ([3]; TG baseline range 500-1000): 38
- Non-HDL Cholesterol Total Baseline ([3]; TG baseline range 500-1000): 231
- Non-HDL Cholesterol Total Endpoint ([3]; TG baseline range 500-1000): 261
- Triglycerides Baseline ([3]; TG baseline range 500-1000): 572
- Triglycerides Endpoint ([3]; TG baseline range 500-1000): 649
- effect on DDL parameters compared with LANTUS ([3]; in vivo): significantly inferior

Compound: CN(C)C(=N)N=C(N)N [Metformin]
- reduction in the rate of progression to type 2 DM [4]: 31%

Compound: NPH insulin: a moderate- to long-acting insulin with a pronounced peak in plasma activity
- time of pronounced peak in plasma activity / peak effect after injection [5]: 3 to 6 h

Compound: insulin: IV insulin-glucose infusion followed by intensive chronic outpatient treatment with insulin (DIGAMI study)
- reduction of all-cause mortality [6]: 28%
